Active and inactive are the calls of the source. For most assays here, no stated cut-off is given here; in the data, actives have a measured EC50 and inactives only a lower limit.
Columns and labels:
[1] = target: T1, Heat shock factor protein 1 (Mus musculus, UniProt P38532); test: enhancement of HSF1-driven luciferase signal – cell-based, NIH3T3, luminescence, dose retest, confirmation (AID 435004); assay type: functional;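 further: stress induced by proteasome inhibitor MG132 added 30 min after compound; luciferase reporter driven by HSF1 response element in NIH3T3 cells; actives raise luminescence as potentiators of the MG132 stress response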
T1 sequence (P38532 whole entry): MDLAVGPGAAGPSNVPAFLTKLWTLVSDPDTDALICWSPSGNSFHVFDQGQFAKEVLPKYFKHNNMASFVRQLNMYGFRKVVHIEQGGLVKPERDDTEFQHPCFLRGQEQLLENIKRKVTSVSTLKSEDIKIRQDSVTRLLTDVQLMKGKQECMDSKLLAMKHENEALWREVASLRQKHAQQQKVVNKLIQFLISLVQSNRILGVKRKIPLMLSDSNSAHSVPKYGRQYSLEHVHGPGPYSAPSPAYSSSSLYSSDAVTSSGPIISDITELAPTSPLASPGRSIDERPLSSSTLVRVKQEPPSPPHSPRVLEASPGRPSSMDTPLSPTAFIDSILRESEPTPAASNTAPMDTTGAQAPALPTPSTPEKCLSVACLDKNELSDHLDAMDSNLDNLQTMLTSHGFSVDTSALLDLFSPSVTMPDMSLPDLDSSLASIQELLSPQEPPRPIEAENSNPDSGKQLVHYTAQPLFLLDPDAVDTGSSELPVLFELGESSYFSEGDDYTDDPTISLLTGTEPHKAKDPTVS

[2] = Luminescence Cell-Based Dose Confirmation HTS to Identify Activators of 5'UTR Stem-Loop Driven Alpha-Synuclein mRNA Translation in H4 Neuroglioblastoma Cells. [Related pubchem assays: 1829 (Project Summary), 1814 (Primary HTS)]; assay type: functional
[3] = Luminescence Cell-Based Dose Response HTS to Identify Activators of Luciferase Translation or Activity in H4 […] Cells. [Related pubchem assays: 1829 (Project Summary), 1814 (Primary HTS)]; assay type: functional
H4 = test: Luminescence Cell-Based Dose Response HTS to Identify Activators of 5'UTR Stem-Loop Driven Prion Protein mRNA Translation in H4 Neuroglioblastoma Cells. [Related pubchem assays: 1829 (Project Summary), 1814 (Primary HTS)]; assay type: functional; details: Homo sapiens
[4] = Trypanosoma cruzi growth suppression in host cells – NIH3T3 host cells, beta-gal luminescence, confirmation (AID 2044); assay type: functional, cell-based;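 further: intracellular parasites grown in NIH/3T3 mouse fibroblasts as host cells; luminescent beta-galactosidase reporter signal from transgenic T. cruzi replicating inside host cells; inhibitors lower the luminescence signal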
[5] = NIH3T3 cell viability loss – ATP luminescence, mouse fibroblasts, counter-screen, dose response (AID 2010); assay type: functional, cell-based;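 further: cells exposed to compound for about 90 hours before reading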
[6] = Luminescence Cell-Based Dose Retest to Confirm Inhibitors of Cancer Stem Cells. [Related pubchem assays (depositor defined):AID2717, AID2721]; assay type: functional; details: Homo sapiens
H9c2 = test: cells; assay type: functional, cell-based; details: Rattus norvegicus, H9c2, Myocardium;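 further: confirmatory concentration-response retest of ultra-high-throughput screening hits for modulation of myocardial damage; cell death induced by hydrogen peroxide oxidative stress; compound pretreatment for 60 min then peroxide exposure for 2 h; potency is for protecting the cells against peroxide damage rather than for killing them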
[7] = target: T2, Rac GTPase-activating protein 1 (Homo sapiens, UniProt Q9H0H5); test: blockers of MgcRacGAP-driven Rac1 GTP hydrolysis – biochemical, ADP Hunter fluorescence, primary and confirmatory, confirmation (AID 624330); assay type: functional
T2 sequence (Q9H0H5 whole entry): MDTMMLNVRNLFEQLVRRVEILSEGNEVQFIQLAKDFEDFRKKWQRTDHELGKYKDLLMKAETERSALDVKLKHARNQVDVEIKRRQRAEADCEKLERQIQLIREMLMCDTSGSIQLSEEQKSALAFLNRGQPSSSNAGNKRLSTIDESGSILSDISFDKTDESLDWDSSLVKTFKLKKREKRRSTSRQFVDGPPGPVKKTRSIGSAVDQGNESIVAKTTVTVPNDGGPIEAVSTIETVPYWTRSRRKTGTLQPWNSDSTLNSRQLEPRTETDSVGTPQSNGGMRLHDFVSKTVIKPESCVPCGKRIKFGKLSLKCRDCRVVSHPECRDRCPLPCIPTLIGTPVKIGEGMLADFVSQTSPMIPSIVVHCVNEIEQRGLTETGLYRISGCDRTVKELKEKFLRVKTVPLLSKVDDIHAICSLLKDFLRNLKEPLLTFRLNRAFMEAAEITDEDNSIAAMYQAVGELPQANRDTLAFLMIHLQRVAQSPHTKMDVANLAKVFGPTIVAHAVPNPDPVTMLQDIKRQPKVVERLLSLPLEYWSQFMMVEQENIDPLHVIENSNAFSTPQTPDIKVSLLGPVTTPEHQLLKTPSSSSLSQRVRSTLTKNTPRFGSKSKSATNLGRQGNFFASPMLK

Protein skinhead-1 = target: T3, Protein skinhead-1 (Caenorhabditis elegans, UniProt P34707); assay type: functional
T3 sequence (P34707 whole entry): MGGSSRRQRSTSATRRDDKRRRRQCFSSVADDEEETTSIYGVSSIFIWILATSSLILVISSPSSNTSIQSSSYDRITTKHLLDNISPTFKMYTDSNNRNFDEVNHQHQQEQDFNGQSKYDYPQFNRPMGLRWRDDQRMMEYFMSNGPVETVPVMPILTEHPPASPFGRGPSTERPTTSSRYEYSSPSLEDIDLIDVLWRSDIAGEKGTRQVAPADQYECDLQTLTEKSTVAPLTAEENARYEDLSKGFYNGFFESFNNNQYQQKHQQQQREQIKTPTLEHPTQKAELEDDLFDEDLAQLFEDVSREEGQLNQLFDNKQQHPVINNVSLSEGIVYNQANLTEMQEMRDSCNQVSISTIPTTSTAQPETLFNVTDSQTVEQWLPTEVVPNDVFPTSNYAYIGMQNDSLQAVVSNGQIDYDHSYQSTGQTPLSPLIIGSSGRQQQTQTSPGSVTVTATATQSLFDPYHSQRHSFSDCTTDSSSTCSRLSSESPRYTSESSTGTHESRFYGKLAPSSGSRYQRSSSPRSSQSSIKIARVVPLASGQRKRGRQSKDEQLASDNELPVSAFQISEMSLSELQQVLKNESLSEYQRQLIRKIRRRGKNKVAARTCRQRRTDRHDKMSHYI

INS1 = test: INS-1E survival protection against cytokine death – cell-based, luminescence, retest, dose response (AID 449756); assay type: functional; details: Rattus norvegicus;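 further: cell death triggered by IL-1 beta plus TNF-alpha plus IFN-gamma mixture; protective hits raise ATP signal compared with cytokine alone wells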
[8] = system: Streptococcus sp. 'group A'; test: Streptococcus pyogenes SK(-)GAS viability under kanamycin – luminescence, BacTiterGlo, confirmation, counter-screen for streptokinase expression inhibitor project, dose response (AID 1900); assay type: functional, organism-based
Streptococcus = test: GAS UMAA2166 growth inhibition – luminescence, BacTiterGlo, counter-screen for streptokinase expression inhibitor project, dose response (AID 1915); assay type: functional, organism-based;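 further: potency for reduction of bacterial viability or growth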
[9] = target: T4, Corticotropin-releasing factor receptor 2/Corticotropin-releasing factor-binding protein (Homo sapiens, UniProt P24387+Q13324); test: activators of CRF receptor 2 with binding protein – uHTS hits, confirmation (AID 602473); assay type: functional; details: read-out: EC50_Mean
T4 sequence (Q13324 whole entry): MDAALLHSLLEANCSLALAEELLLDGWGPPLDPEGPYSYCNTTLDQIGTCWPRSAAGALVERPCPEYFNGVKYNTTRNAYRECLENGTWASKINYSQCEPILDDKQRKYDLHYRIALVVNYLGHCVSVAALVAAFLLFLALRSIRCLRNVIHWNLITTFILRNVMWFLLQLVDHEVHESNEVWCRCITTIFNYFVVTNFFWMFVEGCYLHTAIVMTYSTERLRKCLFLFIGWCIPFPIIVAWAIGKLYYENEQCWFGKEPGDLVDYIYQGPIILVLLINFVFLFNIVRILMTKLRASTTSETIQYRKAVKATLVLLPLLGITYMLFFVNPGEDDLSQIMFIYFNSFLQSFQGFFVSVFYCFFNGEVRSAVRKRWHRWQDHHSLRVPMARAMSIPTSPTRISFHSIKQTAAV
T4 sequence (P24387 whole entry): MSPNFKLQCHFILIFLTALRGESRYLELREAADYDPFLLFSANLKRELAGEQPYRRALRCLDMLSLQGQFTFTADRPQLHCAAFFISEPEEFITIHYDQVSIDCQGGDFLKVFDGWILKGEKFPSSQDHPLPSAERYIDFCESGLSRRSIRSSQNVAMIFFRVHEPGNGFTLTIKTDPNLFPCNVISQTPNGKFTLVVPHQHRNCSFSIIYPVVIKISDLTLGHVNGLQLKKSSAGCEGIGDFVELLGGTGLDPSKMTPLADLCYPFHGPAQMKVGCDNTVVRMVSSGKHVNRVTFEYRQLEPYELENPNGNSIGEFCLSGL

Paired box protein Pax-8 = Paired box protein Pax-8 (Homo sapiens, UniProt Q06710); test: PAX8 transcriptional activity inhibition in RMG-I – RMG-I cells, luciferase, cherry-pick, dose response (AID 687027); assay type: functional, cell-based;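 further: luciferase reporter driven by Pax8 target thyroperoxidase promoter measured by SteadyGlo luminescence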
Sequence of Paired box protein Pax-8 (Q06710 whole entry): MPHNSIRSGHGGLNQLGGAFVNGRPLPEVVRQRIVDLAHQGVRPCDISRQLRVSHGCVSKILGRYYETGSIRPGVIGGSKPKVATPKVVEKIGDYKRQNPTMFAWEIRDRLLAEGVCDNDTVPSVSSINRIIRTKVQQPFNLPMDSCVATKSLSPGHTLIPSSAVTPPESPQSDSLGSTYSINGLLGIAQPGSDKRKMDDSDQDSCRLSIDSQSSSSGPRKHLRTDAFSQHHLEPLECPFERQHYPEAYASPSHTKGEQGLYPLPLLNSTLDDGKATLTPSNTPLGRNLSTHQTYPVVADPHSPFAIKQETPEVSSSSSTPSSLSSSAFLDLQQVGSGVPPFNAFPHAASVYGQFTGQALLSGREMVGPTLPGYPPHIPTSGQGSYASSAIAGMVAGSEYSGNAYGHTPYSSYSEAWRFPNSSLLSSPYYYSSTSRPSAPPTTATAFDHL

[10] = viability of uninfected HEp-2 cells – cell-based, HTS, cytotoxicity control for RSV inhibitor project, dose response (AID 2410); assay type: functional; details: human respiratory syncytial virus

COc1ccc(-c2c(C)c3cc(O)ccc3oc2=O)cc1OC
EC50 [1]: > 260 µM (inactive)

CCc1n[nH]c(SCc2ccc(OCC(C)C)cc2)n1
EC50 [2]: 22.6 µM (active)
EC50 [3]: 10.2 µM (active)
EC50 (H4): > 120 µM (not active)

CC(C)(c1ccccc1)c1ccc(OCCCN2CCNCC2)cc1
EC50 [4]: 2.42 µM (active)
EC50 [5]: 15.1 µM (active)
AC50 [6]: 0.2 µM (active)
EC50 [1]: 60.7 µM (active)

O=C(c1ccccc1)c1ccc2nc(N3CCN(C(=O)c4ccco4)CC3)c3nncn3c2c1
IC50 (H9c2): > 79 µM (inactive)

Cc1cc(Br)cc(/C=N/c2ccc(N3CCOCC3)cc2)c1O
IC50 (H9c2): 19.7 µM (active)
IC50 [7]: 14.6 µM (active)

O=S(=O)(c1cccc(F)c1)N1CCN(c2nc(-c3cccnc3)nc3ccccc23)CC1
IC50 (H9c2): > 79 µM (inactive)

CC1(C)CC(=O)c2sc(NC(=O)C(C)(C)C)nc2C1
EC50 [2]: 16 µM (active)
EC50 [3]: 1.31 µM (active)
EC50 (H4): 18.5 µM (active)

Cn1c(=O)n(/N=C/c2ccccc2)c2ccccc21
EC50 [2]: 17.3 µM (active)
EC50 [3]: 10.7 µM (active)
EC50 (H4): 31 µM (active)

CC(C)(C)OC(=O)NCC12C=CC(O1)C1C(=O)N(Cc3ccccc3)C(=O)C12 (stereo unspecified)
IC50 (H9c2): > 79 µM (inactive)
IC50 (Protein skinhead-1): > 100 µM (inactive)

O=C1NC(c2ccccc2)=N/C1=C/c1ccco1
EC50 [2]: 0.322 µM (active)
EC50 [3]: 55.5 µM (active)
EC50 (H4): 5.71 µM (active)

O=[N+]([O-])c1cccc(-c2csc(Nc3ccccc3)n2)c1
AC50 [6]: 4.04 µM (active)
IC50 (Protein skinhead-1): > 100 µM (inactive)

CCOC(=O)C1(Cc2cccc(OC)c2)CCCN(C(=O)c2cc(C)[nH]n2)C1 (stereo unspecified)
EC50 [2]: 12.5 µM (active)
EC50 [3]: 23.2 µM (active)
EC50 (H4): > 120 µM (not active)

CC1=C(Sc2nc3ccccc3[nH]2)C(=O)NC(C)(C)C1
EC50 [1]: > 260 µM (inactive)

Cc1ccc(O)c(NC(=O)c2onc(C)c2Cl)c1
EC50 [1]: 3.11 µM (active)

Cc1[nH]c2ccccc2c1CN1CCN(c2ccccn2)CC1
EC50 [4]: 1.28 µM (active)
EC50 [5]: > 60 µM (not active)
EC50 [1]: 84 µM (active)
AC50 (INS1): 4.21 µM (active)

COc1cc(/C=C/C(=O)Nc2ccc3nc4n(c(=O)c3c2)CCCC4)cc(OC)c1OC
IC50 (H9c2): > 79 µM (inactive)

Cc1ccc(C)c(NC(=O)CSc2nc(O)c3c(C(F)(F)F)cc(-c4cccs4)nc3n2)c1
EC50 [8]: 2.45 µM (active)
EC50 (Streptococcus): 3.04 µM (active)
AC50 [6]: 2.92 µM (active)

O=C(NN=Cc1ccc(N2CCOCC2)s1)c1ccc([N+](=O)[O-])cc1
IC50 (H9c2): 13.1 µM (active)

CCCCn1/c(=N/C(=O)c2cccnc2)c(C#N)cc2c(=O)n3cccc(C)c3nc21
IC50 (H9c2): 26.2 µM (active)
EC50 [9]: > 53 µM (inactive)

Cc1ccc(-c2cn(S(=O)(=O)c3ccc(C)cc3)nc2N)cc1
EC50 [1]: > 260 µM (inactive)

CC1CN(c2nn3c(=O)c4ccccc4nc3c3ccccc23)CC(C)O1 (stereo unspecified)
IC50 (H9c2): > 79 µM (inactive)

COc1cc2c(cc1OC)C(COc1ccc3c(C)cc(=O)oc3c1)N(C(=O)c1ccco1)CC2 (stereo unspecified)
IC50 (H9c2): > 79 µM (inactive)

CC(=O)c1ccc(NC(=O)CSc2nc(=O)cc(N)n2-c2ccccc2)cc1
EC50 [2]: 22.5 µM (active)
EC50 [3]: 12.3 µM (active)
EC50 (H4): 10.9 µM (active)

COc1ccc(-c2oc(=O)c3cc(OC)c(OC)cc3c2C#CCCO)cc1
IC50 (H9c2): > 79 µM (inactive)

CC1(C)CC[C@]2(CO)[C@@H](O)C[C@]3(C)C(=CCC4[C@@]5(C)CC[C@H](O)C(C)(C)C5CC[C@]43C)[C@@H]2C1 (stereo partly specified)
AC50 [6]: 3.14 µM (active)

C[C@H]1CN([C@@H](C)CO)C(=O)Cc2cc(NC(=O)Nc3ccc(C(F)(F)F)cc3)ccc2O[C@H]1CN(C)C(=O)NC1CCCCC1
AC50 (Paired box protein Pax-8): 10.2 µM (active)

Cc1cc(C)nc(NC(=O)CSc2nc3ccccc3s2)n1
EC50 [2]: 4.91 µM (active)
EC50 [3]: 48.4 µM (active)
EC50 (H4): 15.1 µM (active)

COc1cc(C(=O)Sc2ccc(Cl)cc2)cc(OC)c1OC
CC50 [10]: 32.8 µM (active)
EC50 [1]: 1.49 µM (active)

CN(C)N(Cc1ccccc1)C(=O)C(O)(c1ccccc1)c1ccccc1
IC50 (H9c2): > 79 µM (inactive)

O=C(Cn1[nH]c(=O)c2ccccc2c1=O)OCC(=O)N1CCCc2ccccc21
IC50 (H9c2): > 79 µM (inactive)

Cc1oc2ccc(NS(=O)(=O)c3ccc(C(C)(C)C)cc3)cc2c1C(=O)Nc1ccccc1
EC50 [1]: > 260 µM (inactive)

CC(C)c1ccc2[nH]c3c(c2c1)[C@@H]1CCN2C(=O)CCC[C@H](C3)[C@H]12
EC50 [2]: 11.9 µM (active)
EC50 [3]: 53.6 µM (active)
EC50 (H4): > 120 µM (not active)

Reference: ChEMBL document CHEMBL1201862, “PubChem BioAssay data set” (2004)
